Tested on: HBsAg
Assay: HBsAg assay (CLIA of secreted HBsAg in HepG2.2.15 culture supernatant)
Assay type: cell-based, HBV
Conditions: Hepatitis B virus, HepG2.2.15, read-out: IC50 (HBsAg assay)
Procedure: HepG2.2.15 cells (Acs et al. Proc Natl Acad Sci USA, 84, (1987), 4641-4), a constitutively HBV-expressing cell line were cultured in DMEM+Glutamax-I medium (Invitrogen, Carlsbad, Calif., USA), supplemented with 10% fetal bovine serum (Invitrogen) and G418 (Invitrogen) at a final concentration of 200 mg/L and maintained in 5% CO2 at 37° C.
HepG2.2.15 cells were seeded in duplicate into white, 96-well plates at 1.5×10^4 cells/well. The cells were treated with a three-fold serial dilution series of the compounds in DMSO. The final DMSO concentration in all wells was 1% and DMSO was used as no drug control.
The HBsAg chemiluminescence immunoassay (CLIA) kit (Autobio Diagnostics Co., Zhengzhou, China, Catalog number: CL0310-2) was used to measure the levels of secreted HBV antigens semi-quantitatively. For the detection 50 μL/well culture supernatant was used and HBsAg was quantified using HBsAg chemiluminescence immunoassay (CLIA) kit (Autobio Diagnostics Co., Zhengzhou, China, Catalog number: CL0310-2), 50 μL of the supernatant was transferred to the CLIA assay plate and 50 μL of enzyme conjugate reagent was added into each well. The plates were sealed and gently agitated for 1 hour at room temperature. The supernatant-enzyme-mixture was discarded and wells were washed 6 times with 300 μL of PBS. The residual liquid was removed by plating the CLIA plate right side down on absorbent tissue paper. 25 μL of substrates A and B were added to each well. Luminance was measured using a luminometer (Mithras LB 940 Multimode Microplate Reader) after 10 minutes incubation. Dose-response curves were generated and the IC50 value was extrapolated by using the E-WorkBook Suite (ID Business Solutions Ltd., Guildford, UK). The IC50 was defined as the compound concentration at which HBsAg secretion was reduced by 50% compared to the no drug control.

## CCC1c2cnc(-c3ccccn3)nc2CCN1C(=O)c1ccc(OC)c(OC)c1 (single isomer, unassigned; (-)) [Example 35, (−)-(3,4-Dimethoxyphenyl)-[5-ethyl-2-(2-pyridyl)-7,8-dihydro-5H-pyrido[4,3-d]pyrimidin-6-yl]methanone]
  IC50: 2.72 µM

## COc1cc(OC)cc(C(=O)N2CCc3nc(-c4ccccn4)ncc3C2)c1 [Example 19, (3,5-Dimethoxyphenyl)-[2-(2-pyridyl)-7,8-dihydro-5H-pyrido[4,3-d]pyrimidin-6-yl]methanone]
  IC50: 8.99 µM

## COc1ccc(C(=O)N2CCc3nc(-c4ccccn4)ncc3C2)cc1 [Example 39, (4-Methoxyphenyl)-[2-(2-pyridyl)-7,8-dihydro-5H-pyrido[4,3-d]pyrimidin-6-yl]methanone]
  IC50: 10.6 µM

## COCCCOc1ccc(C(=O)N2CCc3nc(-c4ccccn4)ncc3C2)cc1OC [Example 26, [3-Methoxy-4-(3-methoxypropoxy)phenyl]-[2-(2-pyridyl)-7,8-dihydro-5H-pyrido[4,3-d]pyrimidin-6-yl]methanone]
  IC50: 3.18 µM

## CC1c2cnc(-c3ccccn3)nc2CCN1C(=O)c1ccc(Br)s1 (stereo not drawn) [Example 53, (5-Bromo-2-thienyl)-[5-methyl-2-(2-pyridyl)-7,8-dihydro-5H-pyrido[4,3-d]pyrimidin-6-yl]methanone]
  IC50: 0.51 µM

## CC1c2cnc(-c3ccccn3)nc2CCN1C(=O)c1ncco1 (stereo not drawn) [Example 60, [5-Methyl-2-(2-pyridyl)-7,8-dihydro-5H-pyrido[4,3-d]pyrimidin-6-yl]-oxazol-2-yl-methanone]
  IC50: 2.61 µM

## O=C(c1cc(F)cc(F)c1)N1CCc2nc(-c3ccccn3)ncc2C1 [Example 37, (3,5-Difluorophenyl)-[2-(2-pyridyl)-7,8-dihydro-5H-pyrido[4,3-d]pyrimidin-6-yl]methanone]
  IC50: 25.8 µM

## CC1c2cnc(-c3ccccn3)nc2CCN1C(=O)c1nccn1C (stereo not drawn) [Example 57, (1-Methylimidazol-2-yl)-[5-methyl-2-(2-pyridyl)-7,8-dihydro-5H-pyrido[4,3-d]pyrimidin-6-yl]methanone]
  IC50: 3.23 µM

## CC1c2cnc(-c3ncccn3)nc2CCN1C(=O)c1nn(C)c2ccccc12 (stereo not drawn) [Example 62, (1-Methylindazol-3-yl)-(5-methyl-2-pyrimidin-2-yl-7,8-dihydro-5H-pyrido[4,3-d]pyrimidin-6-yl)methanone]
  IC50: 0.42 µM

## Cc1cnc(C(=O)N2CCc3nc(-c4ccccn4)ncc3C2C)s1 (stereo not drawn) [Example 55, [5-Methyl-2-(2-pyridyl)-7,8-dihydro-5H-pyrido[4,3-d]pyrimidin-6-yl]-(5-methylthiazol-2-yl)methanone]
  IC50: 0.223 µM

## COc1ccc(C(=O)N2CCc3nc(-c4ccccn4)ncc3C2C)cc1OC (single isomer, unassigned; (-)) [Example 34, (−)-(3,4-Dimethoxyphenyl)-[5-methyl-2-(2-pyridyl)-7,8-dihydro-5H-pyrido[4,3-d]pyrimidin-6-yl]methanone]
  IC50: 1.81 µM

## Cc1csc(C(=O)N2CCc3nc(-c4ccccn4)ncc3C2)c1 [Example 32, (4-Methyl-2-thienyl)-[2-(2-pyridyl)-7,8-dihydro-5H-pyrido[4,3-d]pyrimidin-6-yl]methanone]
  IC50: 1.67 µM

## Cc1nc(C(=O)N2CCc3nc(-c4ccccn4)ncc3C2C)sc1C (stereo not drawn) [Example 61, (4,5-Dimethylthiazol-2-yl)-[5-methyl-2-(2-pyridyl)-7,8-dihydro-5H-pyrido[4,3-d]pyrimidin-6-yl]methanone]
  IC50: 0.082 µM

## O=C(c1ccc(F)c(F)c1)N1CCc2nc(-c3ccccn3)ncc2C1 [Example 10, (3,4-Difluorophenyl)-[2-(2-pyridyl)-7,8-dihydro-5H-pyrido[4,3-d]pyrimidin-6-yl]methanone]
  IC50: 26.2 µM

## COc1ccc(C(=O)N2CCc3nc(-c4ccccn4)ncc3C2)cn1 [Example 36, (6-Methoxy-3-pyridyl)-[2-(2-pyridyl)-7,8-dihydro-5H-pyrido[4,3-d]pyrimidin-6-yl]methanone]
  IC50: 3.97 µM

— patent publication US10968217B2, “Tetrahydropyridopyrimidines for the treatment and prophylaxis of hepatitis B virus infection” (Hoffmann-La Roche Inc., priority 2016, dated 2021)
